Assay results published in article PMC12770539 (Scientific Reports, 2025).

How the values were obtained:
[1] = cited from earlier work
[2] = oral administration, 30 mg/kg dose; cited from earlier work
TGA analysis = assay type: physicochemical
[3] = cited from earlier work; remark: listed apart in the source

**Q.** With C[C@@H]1O[C@@H]1P(=O)(O)O.NC(CO)(CO)CO [Fosfomycin tromethamine] as the compound, how does the elimination half-life [1] read?
**A.** 2 h

**Q.** And the “serum concentration (Cmax)” value ([1]; single 3-gm dose)?
**A.** 26.1 (± 9.1) µg/mL

**Q.** Which results are given for C[C@@H]1O[C@@H]1P(=O)(O)O [Fosfomycin]?
**A.** calculated Tmax [2]: 3.00 ± 0.00 h; mean peak concentration (Cmax) [2]: 3600 ± 960 ng/mL; temperature at which degradation initiates (TGA) (TGA analysis): 150 °C; temperature range of marked weight loss (TGA) (TGA analysis): 200–400 °C

**Q.** Which “local irritation, share of users” value ([3]; vaginal administration) does the source give for Cc1ncc([N+](=O)[O-])n1CCO [Metronidazole] here?
**A.** 10–15%

**Q.** What about the “cure rate for bacterial vaginosis” value ([3]; vaginal suppositories, within 7 days) of the same compound?
**A.** ~80%

**Q.** Which absorption ([1]; oral) does the source give for C[C@@H]1O[C@@H]1P(=O)(O)O [Fosfomycin calcium] here?
**A.** 10–30%
